Test results as given in article PMC7817177 (eLife, 2021).
Blank lines part the entries; values can stand above or below the molecule they belong to.

Key:
ARL3 = biological target: T1, ARL3 (Homo sapiens, UniProt P36405); experiment: fluorescence polarisation, competition with mantGDP; format: binding; conditions: 2 uM mantGDP, 2 uM ARL3-GDP, 2 uM ARL13B 18-278 (GEF) present, pH 7.5, 5 mM MgCl2, room temperature, competitive
T1 construct: full-length, C-terminal His6 tag (untagged thrombin-cut version in some assays), E. coli BL21-CodonPlus(DE3)-RIL
T1 sequence (P36405 2-182): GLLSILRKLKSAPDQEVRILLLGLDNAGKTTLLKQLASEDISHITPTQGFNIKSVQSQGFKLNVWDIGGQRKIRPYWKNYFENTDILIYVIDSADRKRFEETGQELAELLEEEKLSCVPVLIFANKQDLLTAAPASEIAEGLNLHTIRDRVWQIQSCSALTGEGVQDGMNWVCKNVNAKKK

ARL3^ΔN (ARL3^17-182) = biological target: T2, ARL3^ΔN (ARL3^17-182) (Homo sapiens, UniProt P36405); experiment: fluorescence polarisation nucleotide exchange, displacement of mantGDP; format: binding; conditions: 150 uM GppNHp with ARL13B 18-278 (GEF); competitive
T2 construct: residues 17-182 (N-terminal helix removed), C-terminal His6 tag, E. coli
T2 sequence (P36405 17-182, stated change not applied): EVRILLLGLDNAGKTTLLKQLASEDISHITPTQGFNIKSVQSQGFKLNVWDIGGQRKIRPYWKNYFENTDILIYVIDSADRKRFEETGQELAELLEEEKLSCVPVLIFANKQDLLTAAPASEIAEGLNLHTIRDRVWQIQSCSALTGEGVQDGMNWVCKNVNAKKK

[1] = biological target: ADP-ribosylation factor-like 3 (ARL3), full length (human, UniProt P36405 1-182); experiment: cell-based or functional assay
Sequence of ADP-ribosylation factor-like 3 (ARL3), full length (P36405 whole entry): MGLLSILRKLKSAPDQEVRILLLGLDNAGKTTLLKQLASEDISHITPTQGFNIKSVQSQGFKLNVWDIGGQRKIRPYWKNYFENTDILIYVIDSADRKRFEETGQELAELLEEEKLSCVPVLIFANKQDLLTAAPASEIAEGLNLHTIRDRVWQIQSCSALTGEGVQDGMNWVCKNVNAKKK

Molecule: Nc1nc2c(ncn2[C@@H]2O[C@H](COP(=O)(O)OP(=O)(O)O)[C@@H](O)[C@H]2O)c(=O)[nH]1 [GDP]
% mantGDP binding relative to no unlabelled nucleotide (ARL3; 40 uM unlabelled GDP): excess unlabelled GDP was able to compete with mantGDP

% mantGDP binding relative to no unlabelled nucleotide (ARL3; 40 uM unlabelled GTP): 53%
Molecule: Nc1nc2c(ncn2[C@@H]2O[C@H](COP(=O)(O)OP(=O)(O)OP(=O)(O)O)[C@@H](O)[C@H]2O)c(=O)[nH]1 [GTP]

% mantGDP binding relative to no unlabelled nucleotide (ARL3; 40 uM unlabelled GppNHp): 83.7%
Molecule: Nc1nc2c(ncn2[C@@H]2O[C@H](COP(=O)(O)OP(=O)(O)NP(=O)(O)O)[C@@H](O)[C@H]2O)c(=O)[nH]1 [GppNHp]
fluorescence polarisation nucleotide exchange, displacement of mantGDP (ARL3^ΔN (ARL3^17-182)): ARL3^ΔN undergoes significant nucleotide exchange upon the addition of ARL13B

acceleration by 20 µM BART of the exchange of 2 µM ARL3mantGDP with 150 µM unlabelled GDP and 10 µM ARL13B^18-278 (fluorescence polarisation) [1]: ~70 fold
B1: GST-tagged binder of ARL2 (BART), full length (natural protein, human, UniProt Q9Y2Y0 1-163, looked up)
chain: MDALEGESFALSFSSASDAEFDAVVGYLEDIIMDDEFQLLQRNFMDKYYLEFEDTEENKLIYTPIFNEYISLVEKYIEEQLLQRIPEFNMAAFTTTLQHHKDEVAGDIFDMLLTFTDFLAFKEMFLDYRAEKEGRGLDLSSGLVVTSLCKSSSLPASQNNLRH
